The source of these data is ChEMBL document CHEMBL1201862, “PubChem BioAssay data set” (2004).

Test systems include M14; SK-MEL-28; U-251; OVCAR-4; SW-620; SK-MEL-5; UACC-62; LOX IMVI; UO-31; EKVX; HOP-62; SK-MEL-2; SNB-19; MCF7; ACHN; BT-549; Malme-3M; HCC 2998; HOP-92.
Holding throughout (test): NCI-60 cell line screen, 48 h

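Following 48 hours of exposure in 96-well plates, responses at five concentrations were used to interpolate endpoints linearly. GI50 is the concentration that inhibits growth by half.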 Active and inactive are the calls of the source. Rule as the data show it: active = GI50 up to about 1.1 µM and inactive = higher.

Take `CS(=O)(=O)OCC1OC(n2ccc(NC(=O)c3ccccc3)nc2=O)CC1OS(C)(=O)=O` (centres undefined): the GI50 in the test with M14, with SK-MEL-28, with U-251, in the test with OVCAR-4, in the test on SW-620 and in the test with SK-MEL-5 was > 100 µM (inactive) each time. In addition, the GI50 is > 100 µM (inactive) in the test with UACC-62; > 100 µM (inactive) in the test on LOX IMVI; > 10 µM (inactive) in the test with UO-31; > 100 µM (inactive) in the test with EKVX; > 100 µM (inactive) in the test on HOP-62; > 100 µM (inactive) in the test with SK-MEL-2. In addition, the GI50 with SNB-19, in the test with MCF7, with ACHN and with BT-549 was > 100 µM (inactive) in each case.
For the compound `COC(=O)[C@@H](O)[C@]1(C(=O)OC)C2O[C@@H](OC)[C@@H]1CCCCCC[C@H]2O`, the GI50 in the test on M14, in the test on Malme-3M, in the test with SK-MEL-28, in the test with U-251, in the test on HCC 2998 and in the test with OVCAR-4 was > 100 µM (inactive) each time. In addition, the GI50 with SW-620, in the test on SK-MEL-5, in the test with UACC-62, in the test with LOX IMVI, with UO-31 and in the test on EKVX was > 100 µM (inactive) each time. Further, the GI50 is > 100 µM (inactive) with HOP-62; 51.5 µM (inactive) in the test with SK-MEL-2; > 100 µM (inactive) in the test with SNB-19; > 100 µM (inactive) with ACHN; > 100 µM (inactive) with BT-549.
Regarding `CN(C)c1ccc(C(Cc2ccccc2)C2NC(=S)NC2=O)cc1` (centres undefined), the GI50 in the test on M14 is > 100 µM (inactive); in the test on HOP-92 it was > 100 µM (inactive); with Malme-3M, > 74.8 µM (inactive); in the test with SK-MEL-28, > 100 µM (inactive); in the test on U-251, > 94 µM (inactive); in the test with OVCAR-4, 28.4 µM (inactive). The GI50 is > 100 µM (inactive) with SW-620; > 100 µM (inactive) in the test with SK-MEL-5; 67 µM (inactive) in the test on UACC-62; > 100 µM (inactive) with LOX IMVI; > 100 µM (inactive) in the test on UO-31; > 100 µM (inactive) in the test with EKVX. Further, the GI50 in the test on HOP-62, in the test with SK-MEL-2, with SNB-19, in the test on MCF7, with ACHN and with BT-549 was > 100 µM (inactive) in each case.
As for `c1cc(C[S+]2CCCC2)oc1C[S+]1CCCC1`, the GI50 in the test on M14, with Malme-3M, in the test with SK-MEL-28, with U-251, in the test with HCC 2998 and with OVCAR-4 was > 100 µM (inactive) each time. Further, the GI50 in the test with SW-620, with SK-MEL-5, in the test with UACC-62, in the test on LOX IMVI, in the test with UO-31 and in the test on EKVX was > 100 µM (inactive) each time. For the same compound, the GI50 with HOP-62, in the test on SNB-19, in the test on ACHN and in the test on BT-549 was > 100 µM (inactive) each time.
Take `NC(=O)NOCC1NC(=O)NC1=O` (centres undefined): the GI50 in the test with M14, in the test with HOP-92, with Malme-3M, in the test with SK-MEL-28, in the test with U-251 and with OVCAR-4 was > 100 µM (inactive) in each case. Also, the GI50 in the test on SW-620, in the test with SK-MEL-5, with UACC-62, in the test with LOX IMVI, in the test with UO-31 and with EKVX was > 100 µM (inactive) throughout. In addition, the GI50 with HOP-62, with SK-MEL-2, with SNB-19, in the test with MCF7, in the test on ACHN and with BT-549 was > 100 µM (inactive) throughout.
In the case of `O=C1c2ccccc2-c2c1c1ccccc1c(=O)n2Cc1ccco1`, the GI50 with M14, in the test on HOP-92, in the test on Malme-3M, in the test with SK-MEL-28, in the test with U-251 and in the test with SW-620 was > 100 µM (inactive) in each case. In addition, the GI50 is > 100 µM (inactive) in the test with SK-MEL-5; > 100 µM (inactive) with UACC-62; > 100 µM (inactive) in the test with LOX IMVI; > 100 µM (inactive) with UO-31; > 100 µM (inactive) with EKVX; 47.1 µM (inactive) in the test with HOP-62. For the same compound, the GI50 in the test on SK-MEL-2, with MCF7 and with BT-549 was > 100 µM (inactive) throughout.
On to `COC(=O)Nc1nc2cc(Oc3ccc4nc(NC(=O)OC)[nH]c4c3)ccc2[nH]1`, for which the GI50 with M14 was 0.993 µM (active); with HOP-92, 6.56 µM (inactive); in the test with Malme-3M, 0.61 µM (active); in the test on SK-MEL-28 it was 0.713 µM (active); in the test with U-251, 0.681 µM (active); with HCC 2998, 0.984 µM (active). Also, the GI50 with OVCAR-4 is 1.77 µM (inactive); in the test on SW-620, 0.855 µM (active); with SK-MEL-5, 0.687 µM (active); in the test with LOX IMVI it was 2.01 µM (inactive); in the test on UO-31 it was 11.9 µM (inactive); with EKVX, 3.67 µM (inactive). Besides, the GI50 in the test with HOP-62 was 1.56 µM (inactive); in the test on SK-MEL-2 it was 1.34 µM (inactive); with SNB-19, 1.29 µM (inactive); in the test on BT-549, 7.01 µM (inactive).
Consider `CO[C@H]1[C@@H](O)[C@@H](O)O[C@@H](O[C@H]2CC[C@@]3(C)[C@H](CC[C@@H]4[C@@H]3[C@H](O)C[C@]3(C)[C@@H](C5=CC(=O)OC5)CC[C@]43O)C2)[C@@H]1O`, for which the GI50 in the test on M14 is 0.283 µM (active); with HOP-92, 0.531 µM (active); in the test on Malme-3M it was 0.198 µM (active); with SK-MEL-28, 0.622 µM (active); with U-251, 0.305 µM (active); in the test on HCC 2998 it was 1.67 µM (inactive). For the same compound, the GI50 in the test on OVCAR-4 was 0.192 µM (active); in the test with SW-620 it was 0.257 µM (active); in the test on SK-MEL-5, 0.136 µM (active); in the test on UACC-62 it was 0.355 µM (active); with LOX IMVI it was 0.193 µM (active); with UO-31, 0.163 µM (active). Moreover, the GI50 in the test with EKVX is 0.151 µM (active); in the test with HOP-62, 0.124 µM (active); in the test with SK-MEL-2 it was 0.299 µM (active); with SNB-19, 0.692 µM (active); with ACHN, 0.0471 µM (active); with BT-549 it was 0.151 µM (active).
